Experimental data from patent US20230056497A1, “CD206 Modulators Their Use and Methods for Preparation” (The United States of America, As Represented by the …, priority 2019, published 2023).
Read-outs that look alike come from different tables or passages of the source.

Columns and labels:
[1] = test system: KPC allograft tumors grown in C57BL/6 mice; experiment: M2 macrophages adaptive transfer study in KPC allograft model; assay type: in vivo; details: intratumoral injections 3 times a week, compared to vehicle
[2] = test system: murine M1 macrophages and M2 macrophages; experiment: Induction of phagocytosis, autophagy and apoptosis in bone marrow derived macrophages (BMDM), M1 versus M2, relative fluorescence; assay type: cell-based
Excerpt: (§1) Induction of phagocytosis, autophagy, and apoptosis was studied in two in vitro models using M1 and M2 macrophages. […] FIGS. 12A to 12E illustrate this selectivity. […] FIGS. 13A to 13C illustrate this selectivity

[3] = test system: M2 macrophages; experiment: Anti-cell viability screening: reduction of M2 macrophage cell viability (Percentage Relative Cell Viability versus Log Molar Concentration); assay type: cell-based
Experimental: Assays were conducted in a 96-well black solid-bottom plate with a final assay volume of 100 μL.

[4] = molecular target: T1, recombinant human CD206 protein (UniProt ID P22897-1) (Homo sapiens, UniProt P22897); experiment: Electron microscopy of recombinant CD206 incubated with compound, particles scored closed versus open; assay type: binding; details: 30 minutes at 1 μM
T1 sequence (P22897 19-1456): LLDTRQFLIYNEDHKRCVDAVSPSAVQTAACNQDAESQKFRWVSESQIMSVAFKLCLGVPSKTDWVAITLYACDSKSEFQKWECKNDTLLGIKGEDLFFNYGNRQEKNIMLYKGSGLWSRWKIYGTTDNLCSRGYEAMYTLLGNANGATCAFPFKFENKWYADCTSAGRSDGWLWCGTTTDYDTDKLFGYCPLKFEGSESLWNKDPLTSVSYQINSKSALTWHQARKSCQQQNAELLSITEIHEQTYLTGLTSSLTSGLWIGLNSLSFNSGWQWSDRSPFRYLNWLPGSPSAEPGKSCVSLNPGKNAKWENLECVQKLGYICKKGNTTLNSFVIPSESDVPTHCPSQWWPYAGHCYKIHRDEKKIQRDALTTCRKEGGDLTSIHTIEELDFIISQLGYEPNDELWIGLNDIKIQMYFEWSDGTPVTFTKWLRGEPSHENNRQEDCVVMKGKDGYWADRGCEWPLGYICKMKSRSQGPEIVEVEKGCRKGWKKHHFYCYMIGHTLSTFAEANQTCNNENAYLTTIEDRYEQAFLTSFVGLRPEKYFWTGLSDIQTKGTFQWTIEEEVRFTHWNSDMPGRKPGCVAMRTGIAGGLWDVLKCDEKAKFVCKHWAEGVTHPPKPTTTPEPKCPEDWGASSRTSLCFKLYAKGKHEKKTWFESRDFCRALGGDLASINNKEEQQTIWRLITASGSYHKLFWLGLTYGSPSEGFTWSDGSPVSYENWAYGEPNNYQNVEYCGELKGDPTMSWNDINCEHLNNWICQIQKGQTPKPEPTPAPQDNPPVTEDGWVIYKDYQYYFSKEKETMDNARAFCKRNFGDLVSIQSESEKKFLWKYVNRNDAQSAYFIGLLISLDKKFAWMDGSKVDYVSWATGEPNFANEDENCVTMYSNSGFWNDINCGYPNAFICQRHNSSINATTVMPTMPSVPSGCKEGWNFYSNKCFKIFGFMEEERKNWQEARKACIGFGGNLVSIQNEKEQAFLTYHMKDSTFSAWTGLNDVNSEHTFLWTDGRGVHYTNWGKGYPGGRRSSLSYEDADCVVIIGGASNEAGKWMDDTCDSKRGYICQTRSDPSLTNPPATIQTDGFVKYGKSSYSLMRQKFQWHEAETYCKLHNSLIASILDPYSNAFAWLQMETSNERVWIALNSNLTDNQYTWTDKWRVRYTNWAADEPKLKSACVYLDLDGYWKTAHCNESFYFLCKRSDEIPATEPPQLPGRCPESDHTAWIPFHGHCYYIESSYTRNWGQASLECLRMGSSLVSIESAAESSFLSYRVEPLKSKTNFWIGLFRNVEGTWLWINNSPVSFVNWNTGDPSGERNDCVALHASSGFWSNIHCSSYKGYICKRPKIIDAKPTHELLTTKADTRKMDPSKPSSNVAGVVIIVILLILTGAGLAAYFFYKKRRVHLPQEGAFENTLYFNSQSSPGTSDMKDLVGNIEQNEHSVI
Experimental: FIGS. 11A and 11B illustrate conformational change on CD206 when incubated with Compound 1.

[5] = test system: murine M2 macrophages; experiment: M1 markers in murine M2 macrophages by quantitative flow cytometry; assay type: cell-based; details: 20 μM for 2 hours
[6] = test system: RAW264.7 macrophages polarized into M1 and M2; experiment: Induction of phagocytosis, autophagy and apoptosis in RAW264.7 macrophages polarized into M1 and M2; assay type: cell-based, murine
Excerpt: as §1

[7] = test system: M2 macrophages; experiment: Cancer cell phagocytosis by M1 and M2 macrophages, relative quantitative fluorescence; assay type: cell-based; details: M2 versus M1 macrophages
Excerpt: FIGS. 14A to 14B illustrate this selectivity towards M2 macrophages.

[8] = test system: KPC tumors; experiment: Quantitative flow cytometry of autochthonous KPC tumors (intratumoral immune landscape); assay type: in vivo, mice
[9] = Pharmacokinetics (PK) profile, plasma concentration versus time; assay type: in vivo
[10] = test system: CD206 negative control cell lines (DC2.4, fibroblast HTT, non-polarized RAW264.7, KPC cancer cells); experiment: Cell viability in a panel of CD206 negative control cell lines; assay type: cell-based
Excerpt: (§2) Similar selectivity is observed in dendritic cell DC2.4 viability (FIG. 9B), fibroblast HTT viability (FIG. 9C), RAW cell viability (FIG. 9D), and KPC viability (FIG. 9E).

[11] = test system: Kras(G12D)/Trp53(R172H)/Pdx-1-Cre (KPC) mice (murine pancreatic cancer model); experiment: In vivo testing in transgenic KPC mice, tumor growth; details: compared to vehicle
Excerpt: Tumor growth was suppressed during in vivo testing of Compound 1 in fully immune-competent transgenic Kras(G12D)/Trp53(R172H)/Pdx-1-Cre (KPC) mice (murine pancreatic cancer model) compared to vehicle as shown in FIG. 3B. This point was further illustrated in FIGS. 3A and 3C where comparison of tumor volume for mice treated with Compound-1 and untreated mice (vehicle) is shown.

[12] = test system: human CD206^high M2 macrophages; experiment: Cell viability assay of human macrophages; assay type: cell-based; details: derived from healthy volunteers, compared to M1-like macrophages
Excerpt: as §2

[13] = test system: M2 polarized macrophages with intact CD206 (wild type) versus isogenic M2 polarized macrophages lacking the CD206 receptor; experiment: Cell viability in M2 polarized macrophages with intact CD206 versus isogenic macrophages lacking CD206; assay type: cell-based
[14] = Macrophage, Table 2, read-out: IC50
[15] = Macrophage, figure legends and text, read-out: IC50, macrophage activity (Percentage Relative Cell Viability versus Log Molar Concentration) (converted)
[16] = CD11b+F4/80+Gr-1 negative cells

In the case of `O=C(NCCc1cnc[nH]1)c1ccc(-c2ncc3cnc(-c4ccccc4)cn23)cc1` [Compound 1, N-(2-(1H-imidazol-5-yl)ethyl)-4-(6-phenylimidazo[1,5-a]pyrazin-3-yl)benzamide], the “Tumor growth after intratumoral injection of pretreated M2 macrophages” value [1] is reported as “reduction of tumor”, the “selectivity to induce phagocytosis, autophagy, and apoptosis” value ([2]; BMDM in vitro model) is reported as “excellent selectivity to induce phagocytosis, autophagy, and apoptosis in M2 but not in M1 macrophages” and the induction of apoptosis ([2]; M1 versus M2) is reported as “induces apoptosis in M2 but not in M1 macrophages”. For the same compound, the induction of autophagy ([2]; M1 versus M2) was “induces autophagy in M2 but not in M1 macrophages”, the “induction of early phagocytosis” value ([2]; M1 versus M2) was “induces early phagocytosis in M2 but not in M1 macrophages” and the induction of phagocytosis ([2]; M1 versus M2) was “induces phagocytosis in M2 but not in M1 macrophages”. The “induction of phagolysosome formation” value ([2]; M1 versus M2) was “induces phagolysosome formation in M2 but not in M1 macrophages”, the “dose response in induction of phagocytosis” value ([2]; murine M2 macrophages treated for 24 hours) was “full dose response” and the IC50 [3, 14] was 2.86 µM. For the same compound, the IC50 [3, 15] was 2.86 µM, the “M2 Selectivity” value ([3]; Table 2) was “Yes” and the “CD206 particles in a closed state” value [4] was 48%. The “CD206 particles in open state” value [4] was 52%, the “binding to CD206 and conformation of the receptor” value [4] was “binds to CD206 and induces a conformational switch of the receptor” and the “binding to CD206 and conformation of the receptor” value ([4]; listed as Example 38) was “induces the closed conformation of the CD206 receptor”. For the same compound, the “M1 markers (percent positive cell fractions)” value [5] was “induction of M1 markers in M2 macrophages”, the “selectivity to induce phagocytosis, autophagy, and apoptosis” value ([6]; RAW264.7 cell in vitro model) was “excellent selectivity to induce phagocytosis, autophagy, and apoptosis in M2 but not in M1 macrophages” and the induction of apoptosis ([6]; compared to vehicle) was “induces apoptosis in M2 macrophages”. For the same compound, the induction of autophagy ([6]; compared to vehicle) was “induces autophagy in M2 macrophages”, the induction of phagocytosis ([6]; compared to vehicle) was “induces phagocytosis in M2 macrophages” and the cancer cell phagocytosis [7] was “increases cancer cell phagocytosis in M2 but not in M1 macrophages”. For the same compound, the “CD206 positive cells within tumor associated macrophage population” value [8, 16] was “reduction of CD206 positive cells”, the “Signal regulatory protein α (SIRPα) of tumor associated macrophages” value [8, 16] was “reduction of the innate checkpoint Signal regulatory protein α (SIRPα)” and the “CD206 macrophages in tumors (percent positive cell fractions of total cells)” value ([8]; compared to vehicle) was “reduction of CD206 macrophages”. The “M2 to M1 macrophage shift in tumors” value ([8]; compared to vehicle) was “shift from CD206^high M2 to CD86-positive M1 macrophages”, the “intratumoral CD8 cells” value ([8]; compared to vehicle) was “increase in intratumoral CD8 cells” and the “M1 markers in intratumoral M1 and M2 macrophage populations” value ([8]; treatment for three weeks in KPC mice, compared to vehicle) was “induction of M1 markers”. It also gave a concentration at 0.157 h ([9]; IP (intraperitoneal), 20 mg/kg) of 7890 nM, a concentration at 0.5 h ([9]; IP (intraperitoneal), 20 mg/kg) of 7600 nM and a concentration at 1 h ([9]; IP (intraperitoneal), 20 mg/kg) of 11100 nM. For the same compound, the concentration at 1.5 h ([9]; IP (intraperitoneal), 20 mg/kg) was 12800 nM, the concentration at 2 h ([9]; IP (intraperitoneal), 20 mg/kg) was 5840 nM and the concentration at 4 h ([9]; IP (intraperitoneal), 20 mg/kg) was 3020 nM. For the same compound, the concentration at 7 h ([9]; IP (intraperitoneal), 20 mg/kg, 7.0 h) was 540 nM, the concentration at 0.157 h ([9]; PO (Per Os, oral), 30 mg/kg) was 11 nM and the concentration at 0.5 h ([9]; PO (Per Os, oral), 30 mg/kg) was 16 nM. It also gave a concentration at 1 h ([9]; PO (Per Os, oral), 30 mg/kg) of 23 nM, a concentration at 1.5 h ([9]; PO (Per Os, oral), 30 mg/kg) of 190 nM and a concentration at 2 h ([9]; PO (Per Os, oral), 30 mg/kg) of 163 nM. The concentration at 4 h ([9]; PO (Per Os, oral), 30 mg/kg) was 11 nM, the PK profile ([9]; liver, and pancreas, oral and IP injection) was “excellent PK profile” and the “selectivity versus CD206 negative control cell lines” value [10] was “selective for the CD206^high M2 macrophages”. For the same compound, the Tumor growth [11] was “suppressed”, the “activity in human CD206^high M2 macrophages” value [12] was “active” and the “CD206 dependence of macrophage activity” value [13] was “CD206 dependent”.
For `O=C(c1cc2ccccc2[nH]1)N1CCc2c(n(Cc3cccnc3)n(CCc3ccccc3)c2=O)C1` [Compound 2], the IC50 [3, 14] was 4.59 µM, the “M2 Selectivity” value ([3]; Table 2) was “Yes” and the “M1 markers (percent positive cell fractions)” value [5] was “induction of M1 markers in M2 macrophages”. The “CD206 dependence of macrophage activity” value [13] was “CD206 dependent”.
With `CC(=O)c1c(C)oc2ccc(N(C(=O)Oc3ccccc3)[S+](=O)(O)c3ccccc3)cc12` [Compound 3] the IC50 [3, 14] was 3.88 µM, the “M2 Selectivity” value ([3]; Table 2) was “Yes” and the “CD206 dependence of macrophage activity” value [13] was “CD206 dependent”.
With `O=C(NCCN1CCOCC1)c1ccc(-c2ncc3cnc(-c4ccccc4)cn23)cc1` [Compound 4, N-(2-Morpholinoethyl)-4-(6-phenylimidazo[1,5-a]pyrazin-3-yl)benzamide] the IC50 [3, 15] was 8.95 µM.
For `CC(=O)Nc1ccc(NC(=O)c2ccc(-c3ncc4cnc(-c5ccccc5)cn34)cc2)cc1` [Compound 5, N-(4-acetamidophenyl)-4-(6-phenylimidazo[1,5-a]pyrazin-3-yl)benzamide], the IC50 [3, 15] was 7.36 µM.
With `O=C(NCCCn1ccnc1)c1ccc(-c2ncc3cnc(-c4ccccc4)cn23)cc1` [Compound 6, N-(3-(1H-imidazol-1-yl)propyl)-4-(6-phenylimidazo[1,5-a]pyrazin-3-yl)benzamide] the IC50 [3, 15] was 3.85 µM.
`CN(C)CCNC(=O)c1ccc(-c2ncc3cnc(-c4ccccc4)cn23)cc1` [Compound 7, N-(2-(dimethylamino)ethyl)-4-(6-phenylimidazo[1,5-a]pyrazin-3-yl)benzamide] gave an IC50 [3, 15] of 3.13 µM.
Compound `NC(=O)c1ccc(-c2ncc3cnc(-c4cccc(F)c4)cn23)cc1` [Compound 8, 4-(6-(3-fluorophenyl)imidazo[1,5-a]pyrazin-3-yl)benzamide] has an IC50 [3, 15] of 0.45 µM.
For `O=C(NCCCO)c1ccc(-c2ncc3cnc(-c4cccc(F)c4)cn23)cc1` [Compound 9, 4-(6-(3-fluorophenyl)imidazo[1,5-a]pyrazin-3-yl)-N-(3-hydroxypropyl)benzamide], the IC50 [3, 15] was 0.73 µM.
`CC(=O)NCCNC(=O)c1ccc(-c2ncc3cnc(-c4cccc(F)c4)cn23)cc1` [Compound 10, N-(2-acetamidoethyl)-4-(6-(3-fluorophenyl)imidazo[1,5-a]pyrazin-3-yl)benzamide] showed an IC50 ([3]; figure legends and text, read-out: IC50, macrophage activity (Percentage Relative Cell Viability versus Log Molar Concentration) (converted)) of 5.45 µM.
For `O=C(NCCCN1CCCC1=O)c1ccc(-c2ncc3cnc(-c4ccccc4)cn23)cc1` [Compound 28, N-(3-(2-oxopyrrolidin-1-yl)propyl)-4-(6-phenylimidazo[1,5-a]pyrazin-3-yl)benzamide], the cancer cell phagocytosis [7] was “increases cancer cell phagocytosis in M2 but not in M1 macrophages”.
